Activity calls are given as the source filed them. No rule for the calls is given here.

The data set deals with CCRIS mutagenicity, Ames/micronucleus/aberration tests. The experiment in a line: CCRIS mutagenicity studies. As to conditions: Test System: AMES SALMONELLA TYPHIMURIUM
Where [1] appears, read: Strain/Indicator: TA98, Metabolic Activation: NONE, Method: STANDARD PLATE.
The mark [2] stands for this setting: Strain/Indicator: TA98, Metabolic Activation: RAT, LIVER, S-9, PHENOBARBITAL, Method: STANDARD PLATE.
Setting [3] is: Strain/Indicator: TA100, Metabolic Activation: NONE, Method: STANDARD PLATE.

Take `CC(C)=CCOc1c2occc2cc2ccc(=O)oc12`: the mutagenic call is, setting by setting: (Strain/Indicator: TA92, Metabolic Activation: NONE, Method: SPOT TEST) “active; positive”; (Strain/Indicator: TA92, Metabolic Activation: RAT, LIVER, S-9, AROCLOR 1254, Method: SPOT TEST) “active; positive”; (Strain/Indicator: TA94, Metabolic Activation: NONE, Method: SPOT TEST) “inactive; negative”; (Strain/Indicator: TA94, Metabolic Activation: RAT, LIVER, S-9, AROCLOR 1254, Method: SPOT TEST) “inactive; negative”; (Strain/Indicator: TA97, Metabolic Activation: NONE, Method: SPOT TEST) “active; positive”; (Strain/Indicator: TA97, Metabolic Activation: RAT, LIVER, S-9, AROCLOR 1254, Method: SPOT TEST) “active; positive”. For the same compound, the mutagenic call runs as follows: (Strain/Indicator: TA98, Metabolic Activation: NONE, Method: SPOT TEST) “active; positive”; under setting [1], “inactive; negative”; (Strain/Indicator: TA98, Metabolic Activation: RAT, LIVER, S-9, AROCLOR 1254, Method: SPOT TEST) “active; positive”; under setting [2], “inactive; negative”; (Strain/Indicator: TA100, Metabolic Activation: NONE, Method: SPOT TEST) “active; positive”; under setting [3], “active; positive”. Moreover, the mutagenic call runs as follows: (Strain/Indicator: TA100, Metabolic Activation: RAT, LIVER, S-9, AROCLOR 1254, Method: SPOT TEST) “active; positive”; (Strain/Indicator: TA102, Metabolic Activation: NONE, Method: SPOT TEST) “inactive; negative”; (Strain/Indicator: TA102, Metabolic Activation: RAT, LIVER, S-9, AROCLOR 1254, Method: SPOT TEST) “inactive; negative”.

With `Nc1ccc2c([nH]c3ccccc32)c1[N+](=O)[O-]`, the mutagenic call reads like this: under setting [1], “active; positive”; under setting [2], “active; positive”; under setting [3], “active; positive”; (Strain/Indicator: TA100, Metabolic Activation: RAT, LIVER, S-9, PHENOBARBITAL, Method: STANDARD PLATE) “active; positive”; (Strain/Indicator: TA1537, Metabolic Activation: NONE, Method: STANDARD PLATE) “active; positive”; (Strain/Indicator: TA1537, Metabolic Activation: RAT, LIVER, S-9, PHENOBARBITAL, Method: STANDARD PLATE) “active; positive”. Moreover, the mutagenic call was “active; positive” (Strain/Indicator: TA1538, Metabolic Activation: NONE, Method: STANDARD PLATE); “active; positive” (Strain/Indicator: TA1538, Metabolic Activation: RAT, LIVER, S-9, PHENOBARBITAL, Method: STANDARD PLATE); “inactive; negative” (Strain/Indicator: TA1977, Metabolic Activation: NONE, Method: STANDARD PLATE); “active; positive” (Strain/Indicator: TA1977, Metabolic Activation: RAT, LIVER, S-9, PHENOBARBITAL, Method: STANDARD PLATE).

`CCCCCC[C@@H](O)C/C=C\CCCCCCCC(=O)O`: the mutagenic call by setting is: (Strain/Indicator: TA98, Metabolic Activation: HAMSTER, LIVER, S-9, AROCLOR 1254, Method: PREINCUBATION) “inactive; negative”; (Strain/Indicator: TA98, Metabolic Activation: NONE, Method: PREINCUBATION) “inactive; negative”; (Strain/Indicator: TA98, Metabolic Activation: RAT, LIVER, S-9, AROCLOR 1254, Method: PREINCUBATION) “inactive; negative”; (Strain/Indicator: TA100, Metabolic Activation: HAMSTER, LIVER, S-9, AROCLOR 1254, Method: PREINCUBATION) “inactive; negative”; (Strain/Indicator: TA100, Metabolic Activation: NONE, Method: PREINCUBATION) “inactive; negative”; (Strain/Indicator: TA100, Metabolic Activation: RAT, LIVER, S-9, AROCLOR 1254, Method: PREINCUBATION) “inactive; negative”. Moreover, the mutagenic call runs as follows: (Strain/Indicator: TA1535, Metabolic Activation: HAMSTER, LIVER, S-9, AROCLOR 1254, Method: PREINCUBATION) “inactive; negative”; (Strain/Indicator: TA1535, Metabolic Activation: NONE, Method: PREINCUBATION) “inactive; negative”; (Strain/Indicator: TA1535, Metabolic Activation: RAT, LIVER, S-9, AROCLOR 1254, Method: PREINCUBATION) “inactive; negative”; (Strain/Indicator: TA1537, Metabolic Activation: HAMSTER, LIVER, S-9, AROCLOR 1254, Method: PREINCUBATION) “inactive; negative”; (Strain/Indicator: TA1537, Metabolic Activation: NONE, Method: PREINCUBATION) “inactive; negative”; (Strain/Indicator: TA1537, Metabolic Activation: RAT, LIVER, S-9, AROCLOR 1254, Method: PREINCUBATION) “inactive; negative”.

With `Cc1c(/C=N/OCc2ccc(Cl)cc2)c2cc([N+](=O)[O-])ccc2n1Cc1ccccc1`, the mutagenic call by setting is: under setting [1], “inactive; negative”; (Strain/Indicator: TA98, Metabolic Activation: RAT, LIVER, S-9, PHENOBARBITAL AND BETA-NAPHTHOFLAVONE, Method: STANDARD PLATE) “inactive; negative”; under setting [3], “inactive; negative”; (Strain/Indicator: TA100, Metabolic Activation: RAT, LIVER, S-9, PHENOBARBITAL AND BETA-NAPHTHOFLAVONE, Method: STANDARD PLATE) “inactive; negative”.

As to `CC(O)C(=O)[O][Al]([O]C(=O)C(C)O)[O]C(=O)C(C)O` (stereo not given), the mutagenic call is, setting by setting: (Strain/Indicator: TA92, Metabolic Activation: NONE, Method: STANDARD PLATE) “inactive; negative”; under setting [1], “inactive; negative”; under setting [3], “inactive; negative”; (Strain/Indicator: TA104, Metabolic Activation: NONE, Method: STANDARD PLATE) “inactive; negative”.
